According to ChEMBL document CHEMBL5120971, “Network Pharmacology Research and Dual-omic Analyses Reveal the Molecular Mechanism of Natural Product Nodosin Inhibiting Muscle-Invasive Bladder Cancer in Vitro and in Vivo” (J Nat Prod, 2022):
The source made the active and inactive calls. The rule behind the calls is not given here.

Columns and labels:
T-24 [1] = assay: Induction of morphological changes in human T24 cells assessed as reduction in cell adherence at 4 to 12 uM measured after 48 hrs by microscopy; assay type: functional, cell-based; conditions: dose 4-12 µM
T-24 [2] = assay: Induction of ROS generation in human T24 cells at 4 to 10 uM measured after 6 hrs by H2DCFDA probe based flow cytometry; assay type: functional, cell-based; conditions: dose 4-10 µM
T-24 [3] = assay: Induction of apoptosis in human T24 cells assessed as necrotic cells at 8 uM measured after 48 hrs by Annexin V-FITC/propidium iodide staining based flow cytometry (reference value: 0.57%); assay type: functional
T-24 [4] = assay: Induction of apoptosis in human T24 cells assessed as effect on TRIAP1 expression at 6 uM measured after 24 to 30 hrs by proteomic analysis; assay type: functional, cell-based; conditions: time 24-30 hrs
T-24 [5] = assay: Induction of apoptosis in human T24 cells assessed as effect on ARL6IP1 expression at 6 uM measured after 24 to 30 hrs by proteomic analysis; assay type: functional, cell-based; conditions: time 24-30 hrs
T-24 [6] = assay: Induction of autophagy in human T24 cells assessed as up regulation of SQSTM1 expression at 6 uM measured after 24 to 30 hrs by proteomic analysis; assay type: functional, cell-based; conditions: time 24-30 hrs
T-24 [7] = assay: Induction of autophagy in human T24 cells assessed as effect on CISD2 gene expression at 6 uM measured after 12 to 18 hrs by transcriptome analysis; assay type: functional, cell-based; conditions: time 12-18 hrs
T-24 [8] = assay: Induction of apoptosis in human T24 cells assessed as up regulation of HMOX1 gene expression at 6 uM measured after 12 to 18 hrs by transcriptome analysis; assay type: functional, cell-based; conditions: time 12-18 hrs
T-24 [9] = assay: Induction of autophagy in human T24 cells assessed as up regulation of MAP1LC3B gene expression at 6 uM measured after 12 to 18 hrs by transcriptome analysis; assay type: functional, cell-based; conditions: time 12-18 hrs
T-24 [10] = assay: Induction of apoptosis in human T24 cells assessed as up regulation of LC3 expression at 6 to 12 uM measured after 24 hrs by immunofluorescence analysis; assay type: functional, cell-based; conditions: dose 6-12 µM
T-24 [11] = assay: Antimigratory activity against human T24 cells assessed as down regulation of NEXN expression at 6 uM measured after 24 to 30 hrs by proteomic analysis; assay type: functional, cell-based; conditions: time 24-30 hrs
T-24 [12] = assay: Antitumor activity against human T24 cells xenografted in BALB/c mouse assessed as reduction in tumor growth at 2 mg/kg, ip administered at 2 days interval; assay type: functional, organism-based
T-24 [13] = assay: Antitumor activity against human T24 cells xenografted in BALB/c mouse assessed as reduction in Ki67 expression at 2 mg/kg, ip administered at 2 days interval by immunohistochemical analysis; assay type: functional, organism-based
T-24 [14] = assay: Antitumor activity against human T24 cells xenografted in BALB/c mouse assessed as increase in HMOX1expression at 2 mg/kg, ip administered at 2 days interval by immunohistochemical analysis; assay type: functional, organism-based

`C=C1C(=O)[C@]23C[C@H]1C[C@@H](O)[C@H]2[C@@]12CO[C@@H](O)[C@@H]1C(C)(C)CC[C@@H]2OC3=O` [NODOSIN] was tested, and the Activity (T-24 [1]) was “Active”, the Activity (T-24 [2]) was “Active” and the Activity (T-24 [3]) was 0.35%. For the same molecule, the Activity (T-24 [4]) was “Active”, the Activity (T-24 [5]) was “Active” and the Activity (T-24 [6]) was “Active”. The Activity (T-24 [7]) was “Active”, the Activity (T-24 [8]) was “Active” and the Activity (T-24 [9]) was “Active”. For the same molecule, the Activity (T-24 [10]) was “Active”, the Activity (T-24 [11]) was “Active” and the Activity (T-24 [12]) was “Active”. The Activity (T-24 [13]) was “Active” and the Activity (T-24 [14]) was “Active”.
